Results: ChEMBL document CHEMBL2074259, “Mouse reduced in osteosclerosis transporter functions as an organic anion transporter 3 and is localized at abluminal membrane of blood-brain barrier” (J Pharmacol Exp Ther, 2004)
Structures can show the parent of a compound that is named as a salt.

Experiments:
[1] = biological target: T1, Organic anion transporter 3 (Mus musculus, UniProt O88909); experiment: (§1) TP_TRANSPORTER: uptake in Oat3-expressing oocyte cells; assay type: functional, cell-based
T1 sequence (O88909 whole entry): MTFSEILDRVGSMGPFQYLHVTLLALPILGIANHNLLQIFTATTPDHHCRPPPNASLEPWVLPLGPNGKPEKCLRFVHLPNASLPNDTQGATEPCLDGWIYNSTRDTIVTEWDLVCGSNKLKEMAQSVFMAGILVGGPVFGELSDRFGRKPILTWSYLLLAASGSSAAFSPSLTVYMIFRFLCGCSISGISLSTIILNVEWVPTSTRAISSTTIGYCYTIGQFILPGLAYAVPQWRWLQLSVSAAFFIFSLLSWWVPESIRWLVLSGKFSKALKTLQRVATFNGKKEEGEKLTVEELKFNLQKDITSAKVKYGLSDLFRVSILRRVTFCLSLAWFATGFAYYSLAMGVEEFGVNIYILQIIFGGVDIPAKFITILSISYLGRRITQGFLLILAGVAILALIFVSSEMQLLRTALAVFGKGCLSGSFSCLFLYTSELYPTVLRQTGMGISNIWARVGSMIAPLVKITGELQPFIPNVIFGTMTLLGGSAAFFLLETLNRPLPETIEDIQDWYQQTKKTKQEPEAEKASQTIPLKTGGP

[2] = biological target: T1, Organic anion transporter 3; experiment: TP_TRANSPORTER: inhibition of benzylpenicillin uptake by P-aminohippuric acid at a concentration of 1000uM in Oat3-expressing oocyte cells; assay type: functional, cell-based; parameters: scale not given: the % may be the effect or the level left
[3] = biological target: T1, Organic anion transporter 3; experiment: TP_TRANSPORTER: inhibition of benzylpenicillin uptake by Indomethacin at a concentration of 1000uM in Oat3-expressing oocyte cells; assay type: functional, cell-based; parameters: scale not given: the % may be the effect or the level left
[4] = biological target: T1, Organic anion transporter 3; experiment: TP_TRANSPORTER: inhibition of benzylpenicillin uptake by Prostaglandin E2 at a concentration of 1000uM in Oat3-expressing oocyte cells; assay type: functional, cell-based; parameters: scale not given: the % may be the effect or the level left
[5] = biological target: T1, Organic anion transporter 3; experiment: TP_TRANSPORTER: inhibition of benzylpenicillin uptake by Methotrexate at a concentration of 1000uM in Oat3-expressing oocyte cells; assay type: functional, cell-based; parameters: scale not given: the % may be the effect or the level left
[6] = biological target: T2, Oat3 (organic anion transporter 3) (Mus musculus, UniProt O88909); experiment: TP_TRANSPORTER: inhibition of benzylpenicillin uptake by Urate at a concentration of 1000uM in Oat3-expressing oocyte cells; assay type: functional, cell-based; parameters: scale not given: the % may be the effect or the level left; details: Oat3-expressing oocytes, probe benzylpenicillin; read-out: Activity
T2 sequence (O88909 whole entry): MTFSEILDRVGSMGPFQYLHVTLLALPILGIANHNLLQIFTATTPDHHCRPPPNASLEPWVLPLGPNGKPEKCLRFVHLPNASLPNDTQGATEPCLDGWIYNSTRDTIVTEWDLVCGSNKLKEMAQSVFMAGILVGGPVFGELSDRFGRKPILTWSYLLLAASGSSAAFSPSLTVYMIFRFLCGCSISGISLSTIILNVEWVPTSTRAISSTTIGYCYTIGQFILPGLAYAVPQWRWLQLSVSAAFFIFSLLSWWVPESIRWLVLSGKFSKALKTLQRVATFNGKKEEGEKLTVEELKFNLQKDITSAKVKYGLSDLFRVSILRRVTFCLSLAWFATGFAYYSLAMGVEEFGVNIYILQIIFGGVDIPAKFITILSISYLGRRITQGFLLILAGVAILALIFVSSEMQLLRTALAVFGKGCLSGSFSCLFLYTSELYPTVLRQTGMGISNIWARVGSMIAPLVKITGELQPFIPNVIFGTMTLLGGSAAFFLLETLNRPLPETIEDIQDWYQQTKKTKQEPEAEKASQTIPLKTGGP

[7] = biological target: T1, Organic anion transporter 3; experiment: TP_TRANSPORTER: inhibition of benzylpenicillin uptake in Oat3-expressing oocyte cells; assay type: functional, cell-based; parameters: scale not given: the % may be the effect or the level left
[8] = biological target: T2, Oat3 (organic anion transporter 3); experiment: TP_TRANSPORTER: inhibition of benzylpenicillin uptake by Indoxyl sulfate at a concentration of 1000uM in Oat3-expressing oocyte cells; assay type: functional, cell-based; parameters: scale not given: the % may be the effect or the level left; details: Oat3-expressing oocytes, probe benzylpenicillin; read-out: Activity
[9] = biological target: T1, Organic anion transporter 3; experiment: TP_TRANSPORTER: inhibition of benzylpenicillin uptake by Homovanillic acid at a concentration of 1000uM in Oat3-expressing oocyte cells; assay type: functional, cell-based; parameters: scale not given: the % may be the effect or the level left
[10] = biological target: T1, Organic anion transporter 3; experiment: TP_TRANSPORTER: inhibition of benzylpenicillin uptake by 3'-Azido-3'-deoxythymidine at a concentration of 1000uM in Oat3-expressing oocyte cells; assay type: functional, cell-based; parameters: scale not given: the % may be the effect or the level left
[11] = biological target: T2, Oat3 (organic anion transporter 3); experiment: TP_TRANSPORTER: inhibition of benzylpenicillin uptake by Estradiol glucuronide sulfate at a concentration of 5uM in Oat3-expressing oocyte cells; assay type: functional, cell-based; parameters: scale not given: the % may be the effect or the level left; details: Oat3-expressing oocytes, probe benzylpenicillin; read-out: Activity
[12] = biological target: T1, Organic anion transporter 3; experiment: TP_TRANSPORTER: inhibition of benzylpenicillin uptake by Probenecid at a concentration of 1000uM in Oat3-expressing oocyte cells; assay type: functional, cell-based; parameters: scale not given: the % may be the effect or the level left
[13] = biological target: T2, Oat3 (organic anion transporter 3); experiment: TP_TRANSPORTER: inhibition of benzylpenicillin uptake by Triiodothyronine at a concentration of 1000uM in Oat3-expressing oocyte cells; assay type: functional, cell-based; parameters: scale not given: the % may be the effect or the level left; details: Oat3-expressing oocytes, probe benzylpenicillin; read-out: Activity
[14] = biological target: T1, Organic anion transporter 3; experiment: TP_TRANSPORTER: inhibition of benzylpenicillin uptake by 5-Hydroxyindole-3-acetic acid at a concentration of 1000uM in Oat3-expressing oocyte cells; assay type: functional, cell-based; parameters: scale not given: the % may be the effect or the level left
[15] = biological target: T1, Organic anion transporter 3; experiment: TP_TRANSPORTER: inhibition of benzylpenicillin uptake by Bromosulfophthalein at a concentration of 1000uM in Oat3-expressing oocyte cells; assay type: functional, cell-based; parameters: scale not given: the % may be the effect or the level left
[16] = biological target: T2, Oat3 (organic anion transporter 3); experiment: in vitro; details: Oat3-expressing oocytes, probe benzylpenicillin
[17] = biological target: T1, Organic anion transporter 3; experiment: TP_TRANSPORTER: inhibition of benzylpenicillin uptake by Estradiol sulfate at a concentration of 5uM in Oat3-expressing oocyte cells; assay type: functional, cell-based; parameters: scale not given: the % may be the effect or the level left
[18] = biological target: T2, Oat3 (organic anion transporter 3); experiment: TP_TRANSPORTER: inhibition of benzylpenicillin uptake by Pravastatin at a concentration of 1000uM in Oat3-expressing oocyte cells; assay type: functional, cell-based; parameters: scale not given: the % may be the effect or the level left; details: Oat3-expressing oocytes, probe benzylpenicillin; read-out: Activity
[19] = biological target: T1, Organic anion transporter 3; experiment: TP_TRANSPORTER: inhibition of benzylpenicillin uptake by Estrone-3-sulfate at a concentration of 1000uM in Oat3-expressing oocyte cells; assay type: functional, cell-based; parameters: scale not given: the % may be the effect or the level left
[20] = substrate: CC1(C)S[C@@H]2[C@H](NC(=O)Cc3ccccc3)C(=O)N2[C@H]1C(=O)O; experiment: as §1; assay type: functional, cell-based
[21] = substrate: C[C@]12CC[C@@H]3c4ccc(O)cc4CC[C@H]3[C@@H]1CC[C@@H]2O[C@@H]1O[C@H](C(=O)O)[C@@H](O)[C@H](O)[C@H]1O; experiment: as §1; assay type: functional, cell-based

In the case of `Nc1ccc(C(=O)NCC(=O)O)cc1` [AMINOHIPPURIC ACID], the Activity [1] is reported as “substrate []” and the Activity [2] is reported as 14.2%.

`COc1ccc2c(c1)c(CC(=O)O)c(C)n2C(=O)c1ccc(Cl)cc1` [INDOMETHACIN] was tested, and the Activity [1] was “substrate []” and the Activity [3] was 1.32%.

In the case of `O=C(O)c1ccccc1O` [SALICYLIC ACID], the Activity [1] is reported as “substrate []”.

`CCCCC[C@H](O)/C=C/[C@H]1[C@H](O)CC(=O)[C@@H]1C/C=C\CCCC(=O)O` [DINOPROSTONE] was tested, and the Activity [4] was 0.101%.

`CN(Cc1cnc2nc(N)nc(N)c2n1)c1ccc(C(=O)N[C@@H](CCC(=O)O)C(=O)O)cc1` [METHOTREXATE] was tested, and the Activity [1] was “substrate []” and the Activity [5] was 48.4%.

Work on `O=c1[nH]c(=O)c2[nH]c(=O)[nH]c2[nH]1` [URIC ACID] yielded an activity at 1000 µM [6] of 19.9%.

For `O=C(O)CCCC(=O)O` [GLUTARATE], the Activity [1] was “substrate []”.

Work on `O=C(O)[C@H]1O[C@@H](Oc2c[nH]c3ccccc23)[C@H](O)[C@@H](O)[C@@H]1O` [INDOXYL GLUCURONIDE] yielded an Activity [7] of 72.3%.

`O=S(=O)(O)Oc1c[nH]c2ccccc12` [INDOXYL SULFATE] was tested, and the Activity [1] was “substrate []” and the activity at 1000 µM [8] was 21.9%.

For `COc1cc(CC(=O)O)ccc1O` [HOMOVANILLIC ACID], the Activity [1] was “substrate []” and the Activity [9] was 40.9%.

For `Cc1cn([C@H]2C[C@H](N=[N+]=[N-])[C@@H](CO)O2)c(=O)[nH]c1=O` [ZIDOVUDINE], the Activity [10] was 5.13%.

`C[C@]12CC[C@@H]3c4ccc(OS(=O)(=O)O)cc4CC[C@H]3[C@@H]1CC[C@@H]2O[C@@H]1O[C@H](C(=O)O)[C@@H](O)[C@H](O)[C@H]1O` [ESTRADIOL GLUCURONIDE SULFATE] gave an activity at 5 µM [11] of 62.4%.

In the case of `CCCN(CCC)S(=O)(=O)c1ccc(C(=O)O)cc1` [PROBENECID], the Activity [12] is reported as 0.625%.

Molecule `N[C@@H](Cc1cc(I)c(Oc2ccc(O)c(I)c2)c(I)c1)C(=O)O` [LIOTHYRONINE] has an activity at 1000 µM [13] of 39.8%.

With `O=C(O)Cc1c[nH]c2ccc(O)cc12` the Activity [14] was 21.7%.

For `O=C1OC(c2ccc(O)c(S(=O)(=O)[O-])c2)(c2ccc(O)c(S(=O)(=O)[O-])c2)c2c(Br)c(Br)c(Br)c(Br)c21.[Na+].[Na+]` [SULFOBROMOPHTHALEIN SODIUM], the Activity [15] was 2.54%.

In the case of `CN/C(=N/CCSCc1nc[nH]c1C)NC#N` [CIMETIDINE], the Activity [1] is reported as “substrate []” and the activity at 1000 µM [16] is reported as 6.88%.

Molecule `C[C@]12CC[C@@H]3c4ccc(O)cc4CC[C@H]3[C@@H]1CC[C@H]2O.O=S(=O)(O)O` has an Activity [17] of 65.5%.

For `CC[C@H](C)C(=O)O[C@H]1C[C@H](O)C=C2C=C[C@H](C)[C@H](CC[C@@H](O)C[C@@H](O)CC(=O)O)[C@H]21` [PRAVASTATIN], the activity at 1000 µM [18] was 2.85%.

`C[C@]12CC[C@@H]3c4ccc(OS(=O)(=O)O)cc4CC[C@H]3[C@@H]1CCC2=O` [ESTRONE SULFURIC ACID] was tested, and the Activity [1] was “substrate []” and the Activity [19] was 11.4%.

B1: Organic anion transporter 3 (Mus musculus) (protein)
chain: MTFSEILDRVGSMGPFQYLHVTLLALPILGIANHNLLQIFTATTPDHHCRPPPNASLEPWVLPLGPNGKPEKCLRFVHLPNASLPNDTQGATEPCLDGWIYNSTRDTIVTEWDLVCGSNKLKEMAQSVFMAGILVGGPVFGELSDRFGRKPILTWSYLLLAASGSSAAFSPSLTVYMIFRFLCGCSISGISLSTIILNVEWVPTSTRAISSTTIGYCYTIGQFILPGLAYAVPQWRWLQLSVSAAFFIFSLLSWWVPESIRWLVLSGKFSKALKTLQRVATFNGKKEEGEKLTVEELKFNLQKDITSAKVKYGLSDLFRVSILRRVTFCLSLAWFATGFAYYSLAMGVEEFGVNIYILQIIFGGVDIPAKFITILSISYLGRRITQGFLLILAGVAILALIFVSSEMQLLRTALAVFGKGCLSGSFSCLFLYTSELYPTVLRQTGMGISNIWARVGSMIAPLVKITGELQPFIPNVIFGTMTLLGGSAAFFLLETLNRPLPETIEDIQDWYQQTKKTKQEPEAEKASQTIPLKTGGP
B1 was tested, and the Km [20] was 40 µM and the Km [21] was 5.5 µM.
